Test results from patent US8664201B2 (priority 2008, dated 2014).
Several values for one entry are separate records, joined by “and”; a condition that tells them apart may be missing. Equal entries are not always repeated.

Columns and labels:
Settings in all cases: mouse, in vivo
L1210/CPA = assay type: in vivo, mice
Lewis Lung Carcinoma = system: Lewis Lung Carcinoma; design: species or system mice
P388/0 = assay type: in vivo, mice
B16 Melanoma = system: B16 Melanoma; design: species or system mice
16/C Mammary Tumor = assay type: in vivo, mice
P388/CPA = assay type: in vivo, mice
L1210/0 = assay type: in vivo, mice

O=P1(NCCCl)OCCCN1CCCl (stereo not drawn) [Ifosfamide, ifosfamide]
Day 60 survivors/total (L1210/CPA): 0/10 | % ILS (Lewis Lung Carcinoma): 55% | Log kill total (Lewis Lung Carcinoma): >4.5 | T-C (tumor growth delay) (Lewis Lung Carcinoma): 18 days | Tumor-free survivors (Lewis Lung Carcinoma): 7/10 | Day 60 survivors/total (P388/0): 7/10 | Net log10 reduction in tumor burden after therapy (P388/0): 7 | % ILS (B16 Melanoma): 55% | T-C (B16 Melanoma): 18 days | Tumor-free survivors (B16 Melanoma): 7/10 | Days to 2 Doublings (16/C Mammary Tumor): 4.6 days and 4.9 days and 3.8 days and 4.0 days | Day 60 survivors/total (P388/CPA): 0/10 | Net log10 reduction in tumor burden after therapy (P388/CPA): 4 | Day 60 survivors/total (L1210/0): 0/10 and 0/9 | Net log10 reduction in tumor burden after therapy (L1210/0): 8
